Counter-ions that a name gives are not always drawn.
Assays:
PDE3 (cGMP-inhibited) = target: T1, PDE3 (cGMP-inhibited) (Homo sapiens, UniProt Q14432); assay: Inhibition of PDE isoenzymes: PDE3; type: biochemical; conditions: homogenates of human platelets, cAMP or cGMP as substrate; read-out: PDE3 [-log IC50, mol/l] (converted)
T1 construct: investigated in homogenates of human platelets; from tissue; host or cells: homogenates of human platelets
Protocol: (§1) 1. Inhibition of PDE Isoenzymes
(§2) The PDE activity was determined according to Thompson et al. (Adv Cycl Nucl Res 10: 69-92, 1979) with some modifications (Bauer and Schwabe, Naunyn-Schmiedeberg's Arch Pharmacol 311: 193198, 1980). The test samples contained 20 mM Tris (pH 7.4), 5 mM MgCl2, 0.5 μM cAMP or cGMP, [^3H]cAMP or [^3H]cGMP (about 30 000 cpm/sample), the PDE isoenzyme-specific additives described in greater detail below, the indicated concentrations of inhibitor and an aliquot of the enzyme solution in a total sample volume of 200 μl. Dilution series of the compounds according to the invention were prepared in DMSO and further diluted in the samples [1:100 (v/v)], to give the desired end concentration of the inhibitors at a DMSO concentration of 1% (v/v), which for its part has only a minute effect on PDE activity.
(§3) After preincubation at 37° C. for 5 minutes, the reaction was started by addition of the substrate (cAMP or cGMP). The samples were incubated at 37° C. for a further 15 min. The reaction was terminated by addition of 50 μl 0.2 N HCl. After cooling on ice for 10 minutes and addition of 25 μg 5′-nucleotidase (snake venom from Crotalus atrox), the mixture was again incubated at 37° C. for 10 min and the samples were then applied to QAE Sephadex A-25 columns (sample volume 1 ml). The columns were eluted with 2 ml of 30 mM ammonium formate (pH 6.0). The radioactivity of the eluate was measured and corrected by the corresponding blank values (measured in the presence of denatured protein); the blank values were less than 5% of the total radioactivity. In no case did the proportion of hydrolyzed nucleotide exceed 30% of the original substrate concentration.
PDE3 (cGMP-inhibited) was investigated in homogenates of human platelets (see Schudt et al., Biochem Pharmacol 1991: 42, 153-162) using cAMP or cGMP as substrate.
(§4) The IC50 values were determined from the concentration-inhibition curves by nonlinear regression.

PDE4 (cAMP-specific) = assay: Inhibition of PDE isoenzymes: PDE4; type: biochemical; conditions: cytosol of human polymorphonuclear leukocytes (PMNL), cAMP as substrate, motapizone 1 μM
Protocol: as §1, §2, §3
PDE4 (cAMP-specific) was investigated in the cytosol of human polymorphonuclear leukocytes (PMNL) [isolated from leukocyte concentrates, see Schudt et al., Arch Pharmacol 1991: 344, 682-690] using cAMP as substrate. The PDE3 inhibitor motapizone (1 μM) was used to suppress the PDE3 activity emanating from contaminated platelets.
as §4

T1 sequence (Q14432 whole entry): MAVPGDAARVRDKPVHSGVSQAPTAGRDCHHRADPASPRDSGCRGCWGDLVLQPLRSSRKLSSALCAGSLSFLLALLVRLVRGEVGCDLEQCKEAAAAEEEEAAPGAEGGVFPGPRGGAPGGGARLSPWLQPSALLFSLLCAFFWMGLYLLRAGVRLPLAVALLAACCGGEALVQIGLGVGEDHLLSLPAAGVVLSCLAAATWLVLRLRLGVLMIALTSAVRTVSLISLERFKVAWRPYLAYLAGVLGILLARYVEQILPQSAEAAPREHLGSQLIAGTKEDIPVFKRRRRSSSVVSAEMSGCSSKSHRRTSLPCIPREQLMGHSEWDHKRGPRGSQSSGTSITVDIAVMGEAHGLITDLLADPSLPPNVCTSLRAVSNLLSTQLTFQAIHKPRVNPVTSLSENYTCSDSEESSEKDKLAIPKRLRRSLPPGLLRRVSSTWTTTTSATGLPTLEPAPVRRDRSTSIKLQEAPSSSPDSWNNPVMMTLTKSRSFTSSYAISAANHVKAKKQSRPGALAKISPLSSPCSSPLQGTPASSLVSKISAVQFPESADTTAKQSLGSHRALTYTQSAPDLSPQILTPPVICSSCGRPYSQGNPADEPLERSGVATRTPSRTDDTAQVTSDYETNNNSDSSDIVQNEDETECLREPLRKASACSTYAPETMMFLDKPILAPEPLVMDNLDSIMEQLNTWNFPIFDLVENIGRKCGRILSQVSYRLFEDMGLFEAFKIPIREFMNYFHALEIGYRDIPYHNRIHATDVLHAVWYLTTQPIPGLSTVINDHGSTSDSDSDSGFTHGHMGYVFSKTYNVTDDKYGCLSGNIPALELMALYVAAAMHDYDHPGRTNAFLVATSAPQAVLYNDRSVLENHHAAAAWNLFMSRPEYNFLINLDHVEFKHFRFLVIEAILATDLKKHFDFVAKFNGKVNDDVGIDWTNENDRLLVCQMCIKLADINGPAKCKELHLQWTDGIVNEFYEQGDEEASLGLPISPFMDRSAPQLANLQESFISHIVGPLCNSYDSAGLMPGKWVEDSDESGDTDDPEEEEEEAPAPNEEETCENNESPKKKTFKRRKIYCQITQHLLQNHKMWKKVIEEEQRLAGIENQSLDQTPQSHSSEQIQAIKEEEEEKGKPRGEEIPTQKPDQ

Row | melting point [°C] | IC50 (PDE3 (cGMP-inhibited)) [nM] | PDE4 [-log IC50, mol/l] (PDE4 (cAMP-specific)) | Structure (SMILES)
1 | 186 to 188 | 891 | 8.15 | CCOc1cc2c(cc1OC)C(c1cccc(C(=O)NC(=N)N(C)C)c1)=NC1CCN(C)CC21 (stereo not drawn) [Compound 10, N′-{1-[3-(cis)-9-Ethoxy-8-methoxy-2-methyl-1,2,3,4,4a,10b-hexahydro-benzo[c][c][1,6]naphthyridin-6-yl)-phenyl]-methanoyl}-N,N-dimethyl-guanidine]
2 | 220 to 224 | 676 | 7.71 | CCOc1cc2c(cc1OC)C(c1ccc(C(=O)NC(=N)N(C)C)cc1)=NC1CC[N+](C)([O-])CC21 (single isomer, unassigned) [Compound 22, N′-{1-[4-((−)-cis-9-Ethoxy-8-methoxy-2-methyl-2-oxy-1,2,3,4,4a,10b-hexahydro-benzo[c][1,6]naphthyridin-6-yl)-phenyl]-methanoyl}-N,N-dimethyl-guanidine]
3 | 143 to 150 | 91.2 | 9.34 | CCOc1cc2c(cc1OC)C(c1ccc(C(=O)NC(=NC)N(C)C)cc1)=N[C@H]1CCN(C)C[C@@H]21.Cl (relative stereo) [Compound 13, N′-{1-[4-((cis)-9-Ethoxy-8-methoxy-2-methyl-1,2,3,4,4a,10b-hexahydro-benzo[c][1,6]naphthyridin-6-yl)-phenyl]-methanoyl}-N,N,N″-trimethyl-guanidine hydrochloride]
4 | 194 to 203 | – | – | CCOc1cc2c(cc1OC)C(c1ccc(C(=O)NC(=N)N(CC)CC)cc1)=NC1CCN(C)CC21 (stereo not drawn) (as salt: hydrochloride) [Compound 2, N′-{1-[4-((+)-cis-9-Ethoxy-8-methoxy-2-methyl-1,2,3,4,4a,10b-hexahydro[c][1,6]naphthyridin-6-yl)phenyl]methanoyl}-N,N-diethylguanidine dihydrochloride]
5 | 145 to 152 | 550 | 8.41 | CCOc1cc2c(cc1OC)C(c1ccc(C(=O)NC(=N)N3CCCC3)cc1)=N[C@H]1CCN(C)C[C@@H]21 (relative stereo) [Compound 11, 4-((cis)-9-Ethoxy-8-methoxy-2-methyl-1,2,3,4,4a,10b-hexahydro-benzo[c][1,6]naphthyridin-6-yl)-N-(1-imino-1-pyrrolidin-1-yl-methyl)-benzamide]
6 | 209 to 215 | – | – | CCOc1cc2c(cc1OC)C(c1ccc(C(=O)N=C(N)N3CCN(C)CC3)cc1)=NC1CCN(C)CC21 (stereo not drawn) (as salt: hydrochloride) [Compound 6, N-[1-Amino-1-(4-methylpiperazin-1-yl)methylene]-4-((+)-cis-9-ethoxy-8-methoxy-2-methyl-1,2,3,4,4a,10b-hexahydro[c][1,6]naphthyridin-6-yl)benzamide dihydrochloride]

Source: patent publication US6936622B2, “6-phenylbenzonaphthyridines” (Altana Pharma AG, priority 2001, dated 2005)
